Experimental data as given in US20240197938A1, “ANTIMICROBIAL COMPOUNDS BASED ON GLUCOHEPTONIC ACIDS AND THEIR SALTS” (HARCROS CHEMICALS, INC., priority 2021, published 2024).

What was measured:
[1] = Bubble pressure tensiometry (dynamic surface tension, calculated CMC); assay type: physicochemical; details: bubble tensiometry
Protocol: Dynamic surface tensions of certain formulations were measured using a KRÜSS BP100 BPT Mobile bubble pressure tensiometer. Samples of the solution of Example 7 were tested by adding the test solution to a glass dish and lowering the disposable capillary tip and temperature probe into the solution. The dynamic setting was selected, and the instrument was set to collect 30 data points, the bubble age increasing from about 10 ms to about 30,000 ms.
Bubble tensiometry was used to calculate the Critical Micelle Concentration (CMC) value for each of the solutions.
FIG. 1 presents a comparison of the bubble age to surface tension for RM14A at CMC, sub-CMC, and super-CMC concentrations. FIG. 2 presents a comparison of the bubble age to surface tension for RM14B at CMC, sub-CMC, and super-CMC concentrations. FIG. 3 presents a comparison of the bubble age to surface tension for RM14C at CMC, sub-CMC, and super-CMC concentrations. FIG. 4 presents a comparison of the bubble age to surface tension for RM12A, RM13A, RM14A, and RM15A at super-CMC concentrations. FIG. 5 presents a comparison of the bubble age to surface tension for RM12A, RM13A, RM14A, and RM15A at CMC concentrations. FIG. 6 presents a comparison of the bubble age to surface tension for RM12A, RM13A, RM14A, and RM15A at CMC concentrations. FIG. 7 presents a comparison of bubble age to surface tension for RM12A, RM13A, RM14A, and RM15A at sub-CMC concentrations.

[2] = Conductivity testing (calculated CMC); assay type: physicochemical; details: for Calculated CMC, All Points: all data points; for Calculated CMC, Average: average of outer, inner, all points; for Calculated CMC, Inner Points: inner data points; for Calculated CMC, Outer Points: outer data points
Protocol: Conductivities were measured using a VWR 23609-216 Pure H2O Tester conductivity meter. The meter probe was submerged into the test solution and swirled gently. Once the meter settled, the value was recorded.
The conductivity of the solutions of Example 7 were tested at dilutions ranging from 0.1 M to 0.001 M. The data was plotted on a logarithmic scale and analyzed in the style of Heard and Ashworth. For each sample, three graphs were reported and fitted with a trend curve: outer data points, inner data points, all data points. […] An average CMC value was determined from the three trend samples (outer data points, inner data points, all data points) in order to more accuracy predict the CMC value.
LINEST was utilized to determine the slope and intercept for each line, and a combination of INTERCEPT and SLOPE was used to determine the intersection of the two fitted lines. The Critical Micelle Concentration (CMC) was determined for each of these plots by the intercept of the two lines. Set forth below in Table 5 is the calculated CMC for each graph and the average CMC.

| Compound | Calculated CMC [1] [M] | Calculated CMC, All Points [2] [M] | Calculated CMC, Average [2] [M] | Calculated CMC, Inner Points [2] [M] | Calculated CMC, Outer Points [2] [M] |
| --- | --- | --- | --- | --- | --- |
| N=C(NCCCCCCNC(=N)NC(=N)Nc1ccc(Cl)cc1)NC(=N)Nc1ccc(Cl)cc1.O=C(O)[C@H](O)[C@@H](O)[C@H](O)[C@H](O)CO.O=C(O)[C@H](O)[C@@H](O)[C@H](O)[C@H](O)CO [RM12A, Chlorhexidine digluconate] | 0.0168 | 0.0133 | 0.0126 | 0.0128 | 0.0118 |
| N=C(NCCCCCCNC(=N)NC(=N)Nc1ccc(Cl)cc1)NC(=N)Nc1ccc(Cl)cc1.O=C(O)[C@H](O)[C@@H](O)[C@H](O)[C@H](O)CO.O=C(O)[C@H](O)[C@@H](O)[C@H](O)[C@H](O)CO [RM12B, Chlorhexidine digluconate] | 0.0195 | 0.0133 | 0.0127 | 0.0131 | 0.0117 |
| N=C(NCCCCCCNC(=N)NC(=N)Nc1ccc(Cl)cc1)NC(=N)Nc1ccc(Cl)cc1.O=C(O)[C@H](O)[C@@H](O)[C@H](O)[C@H](O)CO.O=C(O)[C@H](O)[C@@H](O)[C@H](O)[C@H](O)CO [RM12C, Chlorhexidine digluconate] | 0.0195 | 0.0133 | 0.0131 | 0.0143 | 0.0116 |
| N=C(NCCCCCCNC(=N)NC(=N)Nc1ccc(Cl)cc1)NC(=N)Nc1ccc(Cl)cc1.O=C(O)C(O)C(O)C(O)C(O)C(O)CO.O=C(O)C(O)C(O)C(O)C(O)C(O)CO [RM13A, Chlorhexidine di-α-glucoheptonate] | 0.0200 | 0.0132 | 0.0123 | 0.0122 | 0.0115 |
| N=C(NCCCCCCNC(=N)NC(=N)Nc1ccc(Cl)cc1)NC(=N)Nc1ccc(Cl)cc1.O=C(O)C(O)C(O)C(O)C(O)C(O)CO.O=C(O)C(O)C(O)C(O)C(O)C(O)CO [RM13B, Chlorhexidine di-α-glucoheptonate] | 0.0167 | 0.0132 | 0.0126 | 0.0131 | 0.0116 |
| N=C(NCCCCCCNC(=N)NC(=N)Nc1ccc(Cl)cc1)NC(=N)Nc1ccc(Cl)cc1.O=C(O)C(O)C(O)C(O)C(O)C(O)CO.O=C(O)C(O)C(O)C(O)C(O)C(O)CO [RM13C, Chlorhexidine di-α-glucoheptonate] | 0.0198 | 0.0130 | 0.0126 | 0.0134 | 0.0113 |
| N=C(NCCCCCCNC(=N)NC(=N)Nc1ccc(Cl)cc1)NC(=N)Nc1ccc(Cl)cc1.O=C(O)C(O)C(O)C(O)C(O)C(O)CO.O=C(O)C(O)C(O)C(O)C(O)C(O)CO [RM14A, Chlorhexidine di-β73-glucoheptonate] | 0.0168 | 0.0130 | 0.0126 | 0.0135 | 0.0113 |
| N=C(NCCCCCCNC(=N)NC(=N)Nc1ccc(Cl)cc1)NC(=N)Nc1ccc(Cl)cc1.O=C(O)C(O)C(O)C(O)C(O)C(O)CO.O=C(O)C(O)C(O)C(O)C(O)C(O)CO [RM14B, Chlorhexidine di-β73-glucoheptonate] | 0.0167 | 0.0132 | 0.0132 | 0.0152 | 0.0113 |
| N=C(NCCCCCCNC(=N)NC(=N)Nc1ccc(Cl)cc1)NC(=N)Nc1ccc(Cl)cc1.O=C(O)C(O)C(O)C(O)C(O)C(O)CO.O=C(O)C(O)C(O)C(O)C(O)C(O)CO [RM14C, Chlorhexidine di-β73-glucoheptonate] | 0.0166 | 0.0131 | 0.0133 | 0.0156 | 0.0111 |
| N=C(NCCCCCCNC(=N)NC(=N)Nc1ccc(Cl)cc1)NC(=N)Nc1ccc(Cl)cc1.O=C(O)C(O)C(O)C(O)C(O)C(O)CO.O=C(O)C(O)C(O)C(O)C(O)C(O)CO [RM15A, Chlorhexidine di-β81-glucoheptonate] | 0.0173 | 0.0133 | 0.0133 | 0.0154 | 0.0113 |
